Read-outs that look alike come from different tables or passages of the source.
Legend:
human CTPS1 versus CTPS2 = assay: Human CTPS1 versus CTPS2 selectivity assessment by RapidFire/MS analysis; type: biochemical; details: Table 26
Procedure: Biological Example 2—RapidFire/MS-Based Enzyme Selectivity Assays.
Human CTPS1 Versus CTPS2 Selectivity Assessment by RapidFire/MS Analysis.
The enzyme inhibitory activities against each target isoform of interest may be determined for the compounds of the invention using an optimised RapidFire high-throughput mass spectrometry (RF/MS) assay format. RF/MS assays for both human CTPS1 and CTPS2 may be performed in assay buffer consisting of 50 mM HEPES (Merck), 20 mM MgCl2, 5 mM KCl, 1 mM DTT, 0.01% Tween-20, pH to 8.0 accordingly. Human full-length active C-terminal FLAG-His-tag CTPS1 (UniProtKB-P17812, CTPS[1-591]-[…]) may be obtained from Proteros biostructures GmbH. Human full length active C-terminal FLAG-His-Avi tagged CTPS2 (UniProtKB-Q9NRF8, CTPS2 [1-586]-[…]) may be obtained from Harker Bio.
Human CTPS (1 or 2) protein may be prepared in 1× assay buffer to the final working protein concentration required for the reaction. A 2 uL volume per well of 2×CTPS (1 or 2) protein may be mixed with 40 nL of compound using acoustic (ECHO) delivery and incubated for 10 minutes at 25° C. Each isoform enzymatic reaction may be subsequently initiated by addition of 2 uL per well of a 2× substrate mix in assay buffer. For hCTPS1: ATP (0.3 mM), UTP (0.2 mM), GTP (0.07 mM) and L-glutamine (0.1 mM). For hCTPS2: ATP (0.1 mM), UTP (0.04 mM), GTP (0.03 mM) and L-glutamine (0.1 mM). Each mixture may be incubated for an appropriate amount of time per isoform within the determined linear phase of the reaction at 25° C. A 60 uL volume of stop solution (1% formic acid with 0.5 uM ^13C9-^15N3-CTP in H2O) may be added and the plate immediately heat-sealed and centrifuged for 10 minutes at 4,000 rpm. Following centrifugation, plates may be loaded onto the Agilent RapidFire microfluidic solid phase extraction system coupled to an AP14000 triple quadrupole mass spectrometer (RF/MS) for analysis.
In all cases, the enzyme converts UTP to CTP. Highly specific and sensitive multiple reaction monitoring (MRM) MS methods may be optimised for the detection of the enzymatic reaction product, CTP, and the stable isotope labelled product standard ^13C9-^15N3-CTP. Readout for data analysis may be calculated as the ratio between the peak area of the product CTP and the internal standard ^13C9-^15N3-CTP. For data reporting, the following equation may be used: […]
For each screening plate, the means of the negative (DMSO) and positive control values were used for the calculation of the respective assay window (S/B) and Z′ values. The median of the respective control values was used for calculation of percent inhibition according to the following equation: […]
Percentage inhibition was then plotted against compound concentration, and the 50% inhibitory concentration (IC50) was determined from the resultant concentration-response curve.
Fold selectivity between CTPS1 and CTPS2 was subsequently calculated according to the following equation: […]

human CTPS1 = biological target: T1, human CTPS1 (Homo sapiens, UniProt P17812); assay: Human CTPS1 enzyme inhibition (ADP-Glo Max assay); type: biochemical; details: read-out: CTPS1 (Human CTPS1 Enzyme Inhibition data grouped by potency range, IC50)
T1 construct: purchased Proteros biostructures GmbH
T1 sequence (P17812 1-591): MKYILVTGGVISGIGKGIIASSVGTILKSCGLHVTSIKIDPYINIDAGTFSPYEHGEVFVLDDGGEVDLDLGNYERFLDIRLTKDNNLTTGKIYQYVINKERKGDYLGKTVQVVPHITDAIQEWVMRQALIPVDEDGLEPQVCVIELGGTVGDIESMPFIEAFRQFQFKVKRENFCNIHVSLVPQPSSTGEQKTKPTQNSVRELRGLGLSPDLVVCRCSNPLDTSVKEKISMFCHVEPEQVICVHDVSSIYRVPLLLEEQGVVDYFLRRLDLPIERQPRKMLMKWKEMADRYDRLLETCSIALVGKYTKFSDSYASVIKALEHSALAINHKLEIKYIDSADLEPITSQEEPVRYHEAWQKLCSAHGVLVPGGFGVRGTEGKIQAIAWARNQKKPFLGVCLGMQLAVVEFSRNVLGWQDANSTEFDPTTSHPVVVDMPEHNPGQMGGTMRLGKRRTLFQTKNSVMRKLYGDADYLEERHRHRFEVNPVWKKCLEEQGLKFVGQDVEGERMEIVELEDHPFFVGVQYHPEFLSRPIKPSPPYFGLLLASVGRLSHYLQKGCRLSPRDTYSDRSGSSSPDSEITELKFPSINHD
Procedure, shortened: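 Full-length FLAG-His-tagged human CTPS1 and compound were preincubated 10 min at 25 °C in 50 mM Tris pH 8.0, 10 mM MgCl2, 0.01% Tween-20, 2 mM L-cysteine. Substrate mix: ATP 0.31 mM, GTP 0.034 mM, UTP 0.48 mM, glutamine 0.186 mM; linear-phase reaction at 25 °C. ADP-Glo Max luminescence; IC50 from inhibition curve.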

## CCOc1cncc(-c2ccc(NC(=O)C(F)(CC)c3ccnc(NS(=O)(=O)C4CC4)n3)nc2)n1 (racemic) [Example P112, 2-(2-(Cyclopropanesulfonamido)pyrimidin-4-yl)-N-(5-(6-ethoxypyrazin-2-yl)pyridin-2-yl)-2-fluorobutanamide]
Human CTPS1 versus CTPS2
  Selectivity (fold selectivity between CTPS1 and CTPS2): ++ (>30-60 fold (++))

## CCOc1cncc(-c2ccc(NC(=O)C(F)(CC)c3ccnc(NS(=O)(=O)C4CC4)n3)nc2)n1 (single isomer, unassigned) [Example P113, 2-(2-(cyclopropanesulfonamido)pyrimidin-4-yl)-N-(5-(6-ethoxypyrazin-2-yl)pyridin-2-yl)-2-fluorobutanamide]
Human CTPS1 versus CTPS2
  Selectivity (fold selectivity between CTPS1 and CTPS2): + (2-30 fold (+))

## CCOc1cncc(-c2ccc(NC(=O)C(F)(CC)c3ccnc(NS(=O)(=O)C4CC4)n3)nc2)n1 (single isomer, unassigned) [Example P114, 2-(2-(cyclopropanesulfonamido)pyrimidin-4-yl)-N-(5-(6-ethoxypyrazin-2-yl)pyridin-2-yl)-2-fluorobutanamide]
Human CTPS1 versus CTPS2
  Selectivity (fold selectivity between CTPS1 and CTPS2): +++ (>60 fold (+++))

## CCOc1cncc(-c2ccc(NC(=O)C(F)(CC)c3cncc(NS(=O)(=O)C4CC4)n3)nc2)n1 (single isomer, unassigned) [Example P206]
Human CTPS1 versus CTPS2
  Selectivity (fold selectivity between CTPS1 and CTPS2): +++ (>60 fold (+++))

## CCOc1cncc(-c2ccc(NC(=O)C(F)(CC)c3cncc(NS(=O)(=O)C4CC4)n3)nc2)n1 (single isomer, unassigned) [Example P207]
Human CTPS1 versus CTPS2
  Selectivity (fold selectivity between CTPS1 and CTPS2): + (2-30 fold (+))

## CCC(C(=O)Nc1ccc(-c2cncc(Cl)c2)cc1)c1ccnc(NS(=O)(=O)C2CC2)n1 (centres unmarked) [Example P1, N-(4-(5-Chloropyridin-3-yl)phenyl)-2-(2-(cyclopropanesulfonamido)pyrimidin-4-yl)butanamide]
Human CTPS1 versus CTPS2
  Selectivity (fold selectivity between CTPS1 and CTPS2): + (2-30 fold (+))

## CC(C)Oc1cncc(-c2ccc(NC(=O)C(C)(C)c3ccnc(NS(=O)(=O)C4CC4)n3)nc2)n1 [Example P9]
Human CTPS1 versus CTPS2
  Selectivity (fold selectivity between CTPS1 and CTPS2): +++ (>60 fold (+++))

## CCC(C(=O)Nc1ccc(-c2cncc(C(F)(F)F)n2)cn1)c1ccnc(NS(=O)(=O)C2CC2)n1 (centres unmarked) [Example P87]
Human CTPS1 versus CTPS2
  Selectivity (fold selectivity between CTPS1 and CTPS2): ++ (>30-60 fold (++))

## CCOc1cncc(-c2ccc(NC(=O)C(CC)c3ccnc(NS(=O)(=O)C4CC4)n3)nc2)n1 (centres unmarked) [Example P88]
Human CTPS1 versus CTPS2
  Selectivity (fold selectivity between CTPS1 and CTPS2): +++ (>60 fold (+++))

## CCC(C(=O)Nc1ccc(-c2cncc(OC(C)C)n2)cn1)c1ccnc(NS(=O)(=O)C2CC2)n1 (centres unmarked) [Example P89]
Human CTPS1 versus CTPS2
  Selectivity (fold selectivity between CTPS1 and CTPS2): +++ (>60 fold (+++))

## CCC(C(=O)Nc1ccc(-c2cncc(OC)n2)cc1F)c1ccnc(NS(=O)(=O)C2CC2)n1 (centres unmarked) [Example P95]
Human CTPS1 versus CTPS2
  Selectivity (fold selectivity between CTPS1 and CTPS2): + (2-30 fold (+))

## CCOc1cncc(-c2ccc(NC(=O)C(CC)c3ccnc(NS(=O)(=O)C4CC4)n3)c(F)c2)n1 (centres unmarked) [Example P96]
Human CTPS1 versus CTPS2
  Selectivity (fold selectivity between CTPS1 and CTPS2): + (2-30 fold (+))

## CCC(C(=O)Nc1ccc(-c2cncc(OCC(F)(F)F)n2)cc1F)c1ccnc(NS(=O)(=O)C2CC2)n1 (centres unmarked) [Example P98]
Human CTPS1 versus CTPS2
  Selectivity (fold selectivity between CTPS1 and CTPS2): +++ (>60 fold (+++))

## CCC(C(=O)Nc1ccc(-c2cncc(C(F)(F)F)n2)cc1)c1ccnc(NS(=O)(=O)C2CC2)n1 (centres unmarked) [Example P103]
Human CTPS1 versus CTPS2
  Selectivity (fold selectivity between CTPS1 and CTPS2): + (2-30 fold (+))

## CCOc1cncc(-c2ccc(NC(=O)C(CC)c3ccnc(NS(=O)(=O)C4CC4)n3)cc2)n1 (centres unmarked) [Example P105, 2-(2-(Cyclopropanesulfonamido)pyrimidin-4-yl)-N-(4-(6-ethoxypyrazin-2-yl)phenyl)butanamide]
Human CTPS1 versus CTPS2
  Selectivity (fold selectivity between CTPS1 and CTPS2): ++ (>30-60 fold (++))

## CCC(C(=O)Nc1ccc(-c2cncc(OCC(F)(F)F)n2)cc1)c1ccnc(NS(=O)(=O)C2CC2)n1 (centres unmarked) [Example P108]
Human CTPS1 versus CTPS2
  Selectivity (fold selectivity between CTPS1 and CTPS2): +++ (>60 fold (+++))

## CCOc1cncc(-c2ccc(NC(=O)C(CCOC)c3ccnc(NS(=O)(=O)C4CC4)n3)cc2)n1 (centres unmarked) [Example P110]
Human CTPS1 versus CTPS2
  Selectivity (fold selectivity between CTPS1 and CTPS2): ++ (>30-60 fold (++))

## CCOc1cncc(-c2ccc(NC(=O)C(CC)c3cccc(NS(=O)(=O)C4CC4)n3)nc2)n1 (centres unmarked) [Example P188]
Human CTPS1 versus CTPS2
  Selectivity (fold selectivity between CTPS1 and CTPS2): ++ (>30-60 fold (++))

## CCOc1cncc(-c2ccc(NC(=O)C(CC)c3cccc(NS(=O)(=O)C4CC4)n3)cc2)n1 (centres unmarked) [Example P191]
Human CTPS1 versus CTPS2
  Selectivity (fold selectivity between CTPS1 and CTPS2): ++ (>30-60 fold (++))

## CCS(=O)(=O)Nc1cncc(CC(=O)Nc2ccc(-c3cccnc3)cc2)n1 [Example P193]
Human CTPS1; Table 23, ADP-Glo Max assay
  IC50: 1000 to 10000 nM

## CCOc1cncc(-c2ccc(NC(=O)C(C)(CCOC)c3cncc(NS(=O)(=O)C4CC4)n3)nc2)n1 (centres unmarked) [Example P198]
Human CTPS1 versus CTPS2
  Selectivity (fold selectivity between CTPS1 and CTPS2): +++ (>60 fold (+++))

## CCOc1cncc(-c2ccc(C(=O)NC3(c4ccnc(NS(=O)(=O)C5CC5)n4)CC3)c(F)c2)n1 [Example P209]
Human CTPS1; Table 23, ADP-Glo Max assay
  IC50: 100 to 1000 nM

## CCOc1cncc(-c2ccc(CNC(CC)c3ccnc(NS(=O)(=O)C4CC4)n3)c(F)c2)n1 (centres unmarked) [Example P235, N-(4-(1-((4-(6-Ethoxypyrazin-2-yl)-2-fluorobenzyl)amino)propyl)pyrimidin-2-yl)cyclopropanesulfonamide]
Human CTPS1; Table 24, ADP-Glo Max assay
  IC50: 100 to 1000 nM

## CCOc1cncc(-c2ccc(CNC3(c4ccnc(NS(=O)(=O)C5CC5)n4)CC3)nc2)n1 [Example P254]
Human CTPS1; Table 24, ADP-Glo Max assay
  IC50: 100 to 1000 nM

## CCOc1cncc(-c2ccc(CNC3(c4ccnc(NS(=O)(=O)C5CC5)n4)CC3)c(F)c2)n1 [Example P255]
Human CTPS1; Table 24, ADP-Glo Max assay
  IC50: 100 to 1000 nM

## CCOc1cncc(-c2ccc(NCC3(c4ccnc(NS(=O)(=O)C5CC5)n4)CCOCC3)cc2)n1 [Example P256]
Human CTPS1; Table 24, ADP-Glo Max assay
  IC50: 100 to 1000 nM

## CCOc1cncc(-c2ccc(NC(=O)C3(c4ccnc(NS(=O)(=O)C5CC5)n4)CC4(C3)OCCO4)nc2)n1 [Example P258]
Human CTPS1; Table 24, ADP-Glo Max assay
  IC50: ≤ 100 nM

## CCOc1cncc(-c2ccc(NC(=O)C3(c4ccnc(NS(=O)(=O)C5CC5)n4)CCC(OC)CC3)nc2)n1 (centres unmarked) [Example P260]
Human CTPS1; Table 24, ADP-Glo Max assay
  IC50: ≤ 100 nM

## CCOc1cncc(-c2ccc(NC(=O)C3(c4ccnc(NS(=O)(=O)C5(C#N)CC5)n4)CCOCC3)nc2)n1 [Example P285, 4-(2-((1-cyanocyclopropane)-1-sulfonamido)pyrimidin-4-yl)-N-(5-(6-ethoxypyrazin-2-yl)pyridin-2-yl)tetrahydro-2H-pyran-4-carboxamide]
Human CTPS1; Table 25, compounds where R1 is substituted by CN
  IC50: ≤ 100 nM

From patent US20230002352A1, “SULFONAMIDE DERIVATIVES AS CTPS1 INHIBITORS” (Step Pharma S.A.S., priority 2019, published 2023)
